Measured values as given in the kinase profiling compilation of Christmann-Franck et al. (2016).

Assays:
Assay in all cases: KINOMEscan competition binding
Conditions in all cases: compound 10.0 µM
[1] = tested on: FLT3 (human), P36888 [R834Q]
CLK3 (human) = CLK3 (human) (UniProt P49761)
MKNK2 (human) = MKNK2 (human) (UniProt Q9HBH9)
TLK2 (human) = TLK2 (human) (UniProt Q86UE8)
PAK7 (human) = PAK7 (human) (UniProt Q9P286)
AKT2 (human) = AKT2 (human) (UniProt P31751)
MAK (human) = MAK (human) (UniProt P20794)
PAK4 (human) = PAK4 (human) (UniProt O96013)
MAP3K15 (human) = MAP3K15 (human) (UniProt Q6ZN16)
PRKG1 (human) = PRKG1 (human) (UniProt Q13976)
BTK (human) = BTK (human) (UniProt Q06187)
ULK2 (human) = ULK2 (human) (UniProt Q8IYT8)
CDKL3 (human) = CDKL3 (human) (UniProt Q8IVW4)
CAMK2G (human) = CAMK2G (human) (UniProt Q13555)
NUAK2 (human) = NUAK2 (human) (UniProt Q9H093)
MAPK15 (human) = MAPK15 (human) (UniProt Q8TD08)
MAPK3 (human) = MAPK3 (human) (UniProt P27361)
PTK2B (human) = PTK2B (human) (UniProt Q14289)
CAMK1G (human) = CAMK1G (human) (UniProt Q96NX5)
ACVRL1 (human) = ACVRL1 (human) (UniProt P37023)
MAPK12 (human) = MAPK12 (human) (UniProt P53778)
TAOK3 (human) = TAOK3 (human) (UniProt Q9H2K8)
EPHA8 (human) = EPHA8 (human) (UniProt P29322)
CIT (human) = CIT (human) (UniProt O14578)
ADCK3 (human) = ADCK3 (human) (UniProt Q8NI60)
PIP5K1C (human) = PIP5K1C (human) (UniProt O60331)
PRKD3 (human) = PRKD3 (human) (UniProt O94806)
GRK7 (human) = GRK7 (human) (UniProt Q8WTQ7)
SNRK (human) = SNRK (human) (UniProt Q9NRH2)
SGK110 (human) = SGK110 (human) (UniProt P0C264)
PRKCE (human) = PRKCE (human) (UniProt Q02156)
TIE1 (human) = TIE1 (human) (UniProt P35590)
ULK3 (human) = ULK3 (human) (UniProt Q6PHR2)
SRMS (human) = SRMS (human) (UniProt Q9H3Y6)
PAK3 (human) = PAK3 (human) (UniProt O75914)
FLT1 (human) = FLT1 (human) (UniProt P17948)
PRPF4B (human) = PRPF4B (human) (UniProt Q13523)
MAP4K5 (human) = MAP4K5 (human) (UniProt Q9Y4K4)
MAST1 (human) = MAST1 (human) (UniProt Q9Y2H9)
LATS2 (human) = LATS2 (human) (UniProt Q9NRM7)
PDGFRA (human) = PDGFRA (human) (UniProt P16234)

Sequence of PRKD3 (human) (O94806 whole entry, looked up): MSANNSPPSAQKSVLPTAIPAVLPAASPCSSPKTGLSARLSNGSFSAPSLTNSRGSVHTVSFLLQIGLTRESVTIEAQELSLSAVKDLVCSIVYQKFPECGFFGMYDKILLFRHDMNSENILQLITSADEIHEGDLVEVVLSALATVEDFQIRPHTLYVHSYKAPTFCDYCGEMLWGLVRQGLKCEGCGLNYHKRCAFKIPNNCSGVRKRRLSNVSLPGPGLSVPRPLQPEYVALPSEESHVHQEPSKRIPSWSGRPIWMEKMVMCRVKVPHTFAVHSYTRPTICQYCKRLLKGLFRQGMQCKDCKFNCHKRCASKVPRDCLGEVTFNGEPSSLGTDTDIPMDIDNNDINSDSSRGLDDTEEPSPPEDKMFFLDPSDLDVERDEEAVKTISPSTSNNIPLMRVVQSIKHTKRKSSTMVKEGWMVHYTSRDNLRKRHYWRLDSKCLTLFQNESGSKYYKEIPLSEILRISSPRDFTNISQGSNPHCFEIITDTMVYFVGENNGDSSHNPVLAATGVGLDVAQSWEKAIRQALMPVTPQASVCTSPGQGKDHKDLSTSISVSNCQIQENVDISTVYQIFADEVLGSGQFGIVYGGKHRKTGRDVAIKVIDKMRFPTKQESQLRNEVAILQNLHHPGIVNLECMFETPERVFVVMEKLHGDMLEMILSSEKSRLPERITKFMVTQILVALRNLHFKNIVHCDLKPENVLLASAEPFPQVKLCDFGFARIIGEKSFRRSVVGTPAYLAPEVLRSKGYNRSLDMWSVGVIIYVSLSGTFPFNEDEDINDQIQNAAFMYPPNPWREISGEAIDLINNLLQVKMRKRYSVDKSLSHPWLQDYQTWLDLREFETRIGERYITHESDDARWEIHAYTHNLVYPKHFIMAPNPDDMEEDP
Sequence of SNRK (human) (Q9NRH2 whole entry, looked up): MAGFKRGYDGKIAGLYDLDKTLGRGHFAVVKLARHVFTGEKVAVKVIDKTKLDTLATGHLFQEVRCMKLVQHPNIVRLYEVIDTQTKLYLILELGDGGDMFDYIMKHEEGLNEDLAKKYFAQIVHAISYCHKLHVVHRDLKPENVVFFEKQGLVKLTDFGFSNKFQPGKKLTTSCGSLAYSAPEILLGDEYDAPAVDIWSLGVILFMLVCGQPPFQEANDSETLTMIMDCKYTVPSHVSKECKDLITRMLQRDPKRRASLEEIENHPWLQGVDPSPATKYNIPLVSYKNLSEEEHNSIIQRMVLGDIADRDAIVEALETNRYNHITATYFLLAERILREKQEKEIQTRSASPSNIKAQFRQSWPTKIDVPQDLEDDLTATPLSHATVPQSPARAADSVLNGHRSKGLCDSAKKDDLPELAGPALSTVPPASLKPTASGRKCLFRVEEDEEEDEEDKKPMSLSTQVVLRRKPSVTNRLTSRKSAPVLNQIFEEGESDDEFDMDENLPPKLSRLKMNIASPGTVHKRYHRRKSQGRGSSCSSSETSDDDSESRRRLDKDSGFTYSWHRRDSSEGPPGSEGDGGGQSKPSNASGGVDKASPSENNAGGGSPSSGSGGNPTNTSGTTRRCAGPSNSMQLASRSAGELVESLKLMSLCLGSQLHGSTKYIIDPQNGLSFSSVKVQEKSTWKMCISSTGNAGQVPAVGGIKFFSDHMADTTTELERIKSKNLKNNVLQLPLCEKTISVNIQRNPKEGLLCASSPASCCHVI
Sequence of ADCK3 (human) (Q8NI60 whole entry, looked up): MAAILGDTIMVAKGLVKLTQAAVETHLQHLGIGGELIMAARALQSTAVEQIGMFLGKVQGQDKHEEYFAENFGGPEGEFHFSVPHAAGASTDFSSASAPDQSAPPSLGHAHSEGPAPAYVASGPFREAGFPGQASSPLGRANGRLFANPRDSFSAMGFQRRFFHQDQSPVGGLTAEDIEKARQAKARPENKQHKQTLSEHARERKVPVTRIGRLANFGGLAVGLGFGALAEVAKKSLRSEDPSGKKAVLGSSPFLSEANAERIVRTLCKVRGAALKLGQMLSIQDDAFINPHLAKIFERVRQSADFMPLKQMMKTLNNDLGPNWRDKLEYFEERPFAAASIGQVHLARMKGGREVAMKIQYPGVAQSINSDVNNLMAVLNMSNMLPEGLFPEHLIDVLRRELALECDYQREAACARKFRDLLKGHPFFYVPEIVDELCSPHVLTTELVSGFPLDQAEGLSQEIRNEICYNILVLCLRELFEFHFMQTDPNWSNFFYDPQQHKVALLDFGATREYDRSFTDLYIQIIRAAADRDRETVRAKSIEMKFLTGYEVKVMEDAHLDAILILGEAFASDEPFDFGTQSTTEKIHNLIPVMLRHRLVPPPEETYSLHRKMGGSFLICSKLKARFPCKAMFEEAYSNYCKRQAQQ
Sequence of EPHA8 (human) (P29322 whole entry, looked up): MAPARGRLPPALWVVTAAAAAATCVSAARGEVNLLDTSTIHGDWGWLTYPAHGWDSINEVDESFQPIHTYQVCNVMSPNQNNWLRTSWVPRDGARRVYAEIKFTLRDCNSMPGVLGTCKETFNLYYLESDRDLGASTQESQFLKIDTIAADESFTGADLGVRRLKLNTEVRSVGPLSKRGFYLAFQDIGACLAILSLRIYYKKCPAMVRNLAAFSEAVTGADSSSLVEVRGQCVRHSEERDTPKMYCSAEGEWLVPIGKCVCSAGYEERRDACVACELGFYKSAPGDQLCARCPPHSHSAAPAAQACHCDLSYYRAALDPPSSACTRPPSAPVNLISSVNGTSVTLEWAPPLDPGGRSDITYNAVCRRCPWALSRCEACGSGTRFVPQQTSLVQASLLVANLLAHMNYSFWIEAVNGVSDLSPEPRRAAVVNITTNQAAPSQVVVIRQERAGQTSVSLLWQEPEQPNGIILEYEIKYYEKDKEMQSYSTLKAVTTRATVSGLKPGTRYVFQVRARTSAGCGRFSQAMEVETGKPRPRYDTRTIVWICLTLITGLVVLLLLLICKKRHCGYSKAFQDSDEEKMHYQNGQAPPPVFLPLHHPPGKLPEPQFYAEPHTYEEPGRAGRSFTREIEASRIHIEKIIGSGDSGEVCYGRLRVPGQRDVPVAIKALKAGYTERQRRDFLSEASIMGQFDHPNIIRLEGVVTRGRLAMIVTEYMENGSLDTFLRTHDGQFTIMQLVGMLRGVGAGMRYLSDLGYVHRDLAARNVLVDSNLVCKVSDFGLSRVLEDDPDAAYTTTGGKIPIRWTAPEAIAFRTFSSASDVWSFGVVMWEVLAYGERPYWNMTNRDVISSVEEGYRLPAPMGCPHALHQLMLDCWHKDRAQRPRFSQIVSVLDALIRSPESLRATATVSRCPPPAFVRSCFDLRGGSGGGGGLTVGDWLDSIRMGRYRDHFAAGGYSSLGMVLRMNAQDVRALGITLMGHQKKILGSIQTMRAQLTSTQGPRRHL
Sequence of PAK3 (human) (O75914 whole entry, looked up): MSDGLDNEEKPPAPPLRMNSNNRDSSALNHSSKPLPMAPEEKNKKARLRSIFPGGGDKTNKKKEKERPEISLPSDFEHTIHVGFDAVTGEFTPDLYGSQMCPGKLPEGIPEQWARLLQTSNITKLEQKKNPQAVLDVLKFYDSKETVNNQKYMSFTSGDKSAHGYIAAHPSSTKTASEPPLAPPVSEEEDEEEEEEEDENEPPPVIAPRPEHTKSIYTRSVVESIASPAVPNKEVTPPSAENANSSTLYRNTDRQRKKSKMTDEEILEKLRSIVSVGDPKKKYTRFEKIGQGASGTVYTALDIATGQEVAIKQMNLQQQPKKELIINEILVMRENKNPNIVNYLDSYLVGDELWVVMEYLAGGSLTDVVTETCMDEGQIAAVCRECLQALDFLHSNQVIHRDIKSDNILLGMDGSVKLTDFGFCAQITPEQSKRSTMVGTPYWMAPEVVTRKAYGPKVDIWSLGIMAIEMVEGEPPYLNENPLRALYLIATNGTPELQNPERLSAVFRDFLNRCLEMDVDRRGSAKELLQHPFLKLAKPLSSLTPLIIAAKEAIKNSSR
Sequence of SRMS (human) (Q9H3Y6 whole entry, looked up): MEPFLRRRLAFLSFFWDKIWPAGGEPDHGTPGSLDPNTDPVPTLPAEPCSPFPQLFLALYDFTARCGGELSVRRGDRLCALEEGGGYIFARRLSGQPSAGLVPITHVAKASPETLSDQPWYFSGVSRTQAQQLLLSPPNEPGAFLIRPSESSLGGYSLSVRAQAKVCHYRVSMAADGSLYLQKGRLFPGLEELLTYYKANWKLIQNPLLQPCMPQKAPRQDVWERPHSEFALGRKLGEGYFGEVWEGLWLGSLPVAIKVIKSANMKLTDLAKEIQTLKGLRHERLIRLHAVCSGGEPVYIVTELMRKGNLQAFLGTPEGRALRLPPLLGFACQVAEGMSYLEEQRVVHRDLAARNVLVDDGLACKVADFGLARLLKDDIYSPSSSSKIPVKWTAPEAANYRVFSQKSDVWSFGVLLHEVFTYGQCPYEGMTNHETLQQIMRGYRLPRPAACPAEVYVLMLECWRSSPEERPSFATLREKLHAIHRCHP
Sequence of ACVRL1 (human) (P37023 whole entry, looked up): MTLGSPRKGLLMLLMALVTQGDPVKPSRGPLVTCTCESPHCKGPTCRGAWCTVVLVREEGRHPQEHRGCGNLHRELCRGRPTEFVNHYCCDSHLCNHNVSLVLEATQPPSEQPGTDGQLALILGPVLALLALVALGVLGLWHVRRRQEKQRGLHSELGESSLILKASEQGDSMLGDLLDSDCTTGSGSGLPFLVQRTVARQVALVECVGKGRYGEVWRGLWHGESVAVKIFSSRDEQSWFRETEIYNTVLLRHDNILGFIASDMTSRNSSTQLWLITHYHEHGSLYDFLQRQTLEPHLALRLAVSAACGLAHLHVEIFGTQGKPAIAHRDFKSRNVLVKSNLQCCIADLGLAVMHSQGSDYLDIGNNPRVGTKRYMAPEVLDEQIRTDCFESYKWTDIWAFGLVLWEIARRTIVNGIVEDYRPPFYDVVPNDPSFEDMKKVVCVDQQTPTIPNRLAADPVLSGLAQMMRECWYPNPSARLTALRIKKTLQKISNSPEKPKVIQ

With `NC(=O)Nc1cc(-c2cccc(F)c2)sc1C(=O)N[C@@H]1CCCNC1` the kinase still bound, per cent of control [1] was 5.6%, the kinase still bound, per cent of control (CLK3 (human)) was 62% and the kinase still bound, per cent of control (MKNK2 (human)) was 0%. For the same molecule, the kinase still bound, per cent of control (TLK2 (human)) was 1.9%, the kinase still bound, per cent of control (PAK7 (human)) was 0% and the kinase still bound, per cent of control (AKT2 (human)) was 60%. For the same molecule, the kinase still bound, per cent of control (MAK (human)) was 100%, the kinase still bound, per cent of control (PAK4 (human)) was 1.2% and the kinase still bound, per cent of control (MAP3K15 (human)) was 28%. The kinase still bound, per cent of control (PRKG1 (human)) was 0.8%, the kinase still bound, per cent of control (BTK (human)) was 0.2% and the kinase still bound, per cent of control (ULK2 (human)) was 0%. The kinase still bound, per cent of control (CDKL3 (human)) was 100%, the kinase still bound, per cent of control (CAMK2G (human)) was 24% and the kinase still bound, per cent of control (NUAK2 (human)) was 2.2%. It also gave a kinase still bound, per cent of control (MAPK15 (human)) of 19%, a kinase still bound, per cent of control (MAPK3 (human)) of 91% and a kinase still bound, per cent of control (PTK2B (human)) of 0.6%. It also gave a kinase still bound, per cent of control (CAMK1G (human)) of 6.2%, a kinase still bound, per cent of control (ACVRL1 (human)) of 76% and a kinase still bound, per cent of control (MAPK12 (human)) of 89%. The kinase still bound, per cent of control (TAOK3 (human)) was 2.9%, the kinase still bound, per cent of control (EPHA8 (human)) was 0.4% and the kinase still bound, per cent of control (CIT (human)) was 0.2%. For the same molecule, the kinase still bound, per cent of control (ADCK3 (human)) was 93%, the kinase still bound, per cent of control (PIP5K1C (human)) was 27% and the kinase still bound, per cent of control (PRKD3 (human)) was 2.2%. It also gave a kinase still bound, per cent of control (GRK7 (human)) of 0.15%, a kinase still bound, per cent of control (SNRK (human)) of 2.6% and a kinase still bound, per cent of control (SGK110 (human)) of 0%. The kinase still bound, per cent of control (PRKCE (human)) was 14%, the kinase still bound, per cent of control (TIE1 (human)) was 7.2% and the kinase still bound, per cent of control (ULK3 (human)) was 0%. The kinase still bound, per cent of control (SRMS (human)) was 0%, the kinase still bound, per cent of control (PAK3 (human)) was 0.5% and the kinase still bound, per cent of control (FLT1 (human)) was 0.1%. For the same molecule, the kinase still bound, per cent of control (PRPF4B (human)) was 7.4%, the kinase still bound, per cent of control (MAP4K5 (human)) was 0.4% and the kinase still bound, per cent of control (MAST1 (human)) was 4.1%. It also gave a kinase still bound, per cent of control (LATS2 (human)) of 2%.
Work on `O=C(Nc1cccc(Nc2ncc(Br)c(NCCc3cnc[nH]3)n2)c1)N1CCCC1` yielded a kinase still bound, per cent of control [1] of 7%, a kinase still bound, per cent of control (CLK3 (human)) of 74% and a kinase still bound, per cent of control (MKNK2 (human)) of 0.1%. The kinase still bound, per cent of control (TLK2 (human)) was 56%, the kinase still bound, per cent of control (PAK7 (human)) was 1.6% and the kinase still bound, per cent of control (AKT2 (human)) was 100%. The kinase still bound, per cent of control (MAK (human)) was 100%, the kinase still bound, per cent of control (PAK4 (human)) was 4% and the kinase still bound, per cent of control (MAP3K15 (human)) was 50%. For the same molecule, the kinase still bound, per cent of control (PRKG1 (human)) was 72%, the kinase still bound, per cent of control (BTK (human)) was 5.2% and the kinase still bound, per cent of control (ULK2 (human)) was 0.3%. It also gave a kinase still bound, per cent of control (CDKL3 (human)) of 75%, a kinase still bound, per cent of control (CAMK2G (human)) of 52% and a kinase still bound, per cent of control (NUAK2 (human)) of 3.8%. The kinase still bound, per cent of control (MAPK15 (human)) was 1.8%, the kinase still bound, per cent of control (MAPK3 (human)) was 76% and the kinase still bound, per cent of control (PTK2B (human)) was 8.2%. The kinase still bound, per cent of control (CAMK1G (human)) was 28%, the kinase still bound, per cent of control (ACVRL1 (human)) was 100% and the kinase still bound, per cent of control (MAPK12 (human)) was 65%. For the same molecule, the kinase still bound, per cent of control (TAOK3 (human)) was 0.1%, the kinase still bound, per cent of control (EPHA8 (human)) was 94% and the kinase still bound, per cent of control (CIT (human)) was 0.75%. For the same molecule, the kinase still bound, per cent of control (ADCK3 (human)) was 100%, the kinase still bound, per cent of control (PDGFRA (human)) was 0.1% and the kinase still bound, per cent of control (PIP5K1C (human)) was 22%. The kinase still bound, per cent of control (PRKD3 (human)) was 0.5%, the kinase still bound, per cent of control (GRK7 (human)) was 34% and the kinase still bound, per cent of control (SNRK (human)) was 100%. For the same molecule, the kinase still bound, per cent of control (SGK110 (human)) was 0.95%, the kinase still bound, per cent of control (PRKCE (human)) was 0% and the kinase still bound, per cent of control (TIE1 (human)) was 2.2%. The kinase still bound, per cent of control (ULK3 (human)) was 0.1%, the kinase still bound, per cent of control (SRMS (human)) was 37% and the kinase still bound, per cent of control (PAK3 (human)) was 2.6%. It also gave a kinase still bound, per cent of control (FLT1 (human)) of 0.6%, a kinase still bound, per cent of control (PRPF4B (human)) of 5.3% and a kinase still bound, per cent of control (MAP4K5 (human)) of 9.6%. It also gave a kinase still bound, per cent of control (MAST1 (human)) of 58% and a kinase still bound, per cent of control (LATS2 (human)) of 0%.
For `COc1cc2ncn(-c3cc(OCc4ccccc4C(F)(F)F)c(C(N)=O)s3)c2cc1OC`, the kinase still bound, per cent of control (CLK3 (human)) was 83%, the kinase still bound, per cent of control (MKNK2 (human)) was 76% and the kinase still bound, per cent of control (TLK2 (human)) was 100%. For the same molecule, the kinase still bound, per cent of control (PAK7 (human)) was 98%, the kinase still bound, per cent of control (AKT2 (human)) was 100% and the kinase still bound, per cent of control (MAK (human)) was 100%. It also gave a kinase still bound, per cent of control (PAK4 (human)) of 100%, a kinase still bound, per cent of control (MAP3K15 (human)) of 63% and a kinase still bound, per cent of control (PRKG1 (human)) of 100%. The kinase still bound, per cent of control (BTK (human)) was 86%, the kinase still bound, per cent of control (CDKL3 (human)) was 100% and the kinase still bound, per cent of control (CAMK2G (human)) was 83%. It also gave a kinase still bound, per cent of control (NUAK2 (human)) of 6%, a kinase still bound, per cent of control (MAPK15 (human)) of 46% and a kinase still bound, per cent of control (MAPK3 (human)) of 100%. The kinase still bound, per cent of control (PTK2B (human)) was 72%, the kinase still bound, per cent of control (CAMK1G (human)) was 72% and the kinase still bound, per cent of control (ACVRL1 (human)) was 100%. It also gave a kinase still bound, per cent of control (TAOK3 (human)) of 89%, a kinase still bound, per cent of control (EPHA8 (human)) of 74% and a kinase still bound, per cent of control (ADCK3 (human)) of 61%. It also gave a kinase still bound, per cent of control (PDGFRA (human)) of 58%, a kinase still bound, per cent of control (PIP5K1C (human)) of 10% and a kinase still bound, per cent of control (PRKD3 (human)) of 100%. It also gave a kinase still bound, per cent of control (GRK7 (human)) of 52%, a kinase still bound, per cent of control (SNRK (human)) of 83% and a kinase still bound, per cent of control (SGK110 (human)) of 100%. For the same molecule, the kinase still bound, per cent of control (PRKCE (human)) was 100%, the kinase still bound, per cent of control (TIE1 (human)) was 31% and the kinase still bound, per cent of control (ULK3 (human)) was 77%. For the same molecule, the kinase still bound, per cent of control (SRMS (human)) was 58%, the kinase still bound, per cent of control (PAK3 (human)) was 77% and the kinase still bound, per cent of control (FLT1 (human)) was 58%. It also gave a kinase still bound, per cent of control (PRPF4B (human)) of 20%, a kinase still bound, per cent of control (MAP4K5 (human)) of 3% and a kinase still bound, per cent of control (MAST1 (human)) of 75%. It also gave a kinase still bound, per cent of control (LATS2 (human)) of 50%.
